System: ONGHEPA1 cells
Test: TGF-β-induced fibrosis of ONGHEPA1 cells (microscope)
Assay type: cell-based, mouse
Settings: 24 hr; for inhibition of the progress of fibrosis (differentiation into myofibroblasts): TGF-β 5 ng/mL plus 50 μM compound; for toxicity to ONGHEPA1 cells: TGF-β plus 50 μM compound
Excerpt: The liver tissue was separated from C57BL/6 mice and a single-cell suspension thereof was made, and immortalized cells were obtained through continuous culture and were confirmed to be mesenchymal stem cells (MSC) of HSC via RT-PCR (Reverse Transcription Polymerase Chain Reaction) using MC (Immunohistochemistry) and FACS (Fluorescence-Activated Cell Sorting). This cell line was called “ONGHEPA1”, and was deposited with the Korean Collection for Type Cultures (KCTC) of the Korea Research Institute of Bioscience and Biotechnology and assigned accession number KCTC13086BP.
Using such properties of HSC, the fibrotic characteristics of ONGHEPA1 were measured. To induce fibrosis, TGF-β (transforming growth factor beta) was added, and the morphologies of the cells were observed after 6 hr, 12 hr, 24 hr, and 48 hr. Consequently, fibrosis was confirmed to progress considerably after 24 hr and further progress after 48 hr (A of FIG. 6).
While ONGHEPA1 cells were incubated, they were treated with TGF-β to induce fibrosis, and 50 μM of eupatilin was added to the culture medium.
In order to more clearly evaluate the effect of eupatilin as above, changes were measured when ONGHEPA1 cells were first treated with eupatilin, washed to remove eupatilin and then treated with TGF-β to induce fibrosis. […] This means that eupatilin is directly associated with the course of fibrosis to thus inhibit the progress of fibrosis.
On the contrary, changes were measured when ONGHEPA1 cells were first treated with TGF-β to induce fibrosis, washed to remove TGF-β and then treated with eupatilin. […] Even when fibrosis was already progressed, eupatilin was able to restore the cells to their original normal condition.
In order to more clearly evaluate whether eupatilin was able to restore the cells that already undergone fibrosis to normal cells, changes were measured when ONGHEPA1 cells were treated with TGF-β for 24 hr to induce complete fibrosis and then treated with eupatilin. […] This means that fibrosis that has progressed considerably can be effectively treated using eupatilin.
The effects of various chromone derivatives other than eupatilin on fibrosis were measured in the same manner as in Example 3-3. While ONGHEPA1 cells were incubated, fibrosis was induced by TGF-β, and a chromone derivative was added at a concentration of 50 μM to the culture medium.

COc1c(-c2ccccc2)oc2c(OC)c(O)cc(O)c2c1=O [ONGA100]
inhibition of the progress of fibrosis (differentiation into myofibroblasts): no effects or very low effects
inhibition of the progress of fibrosis (differentiation into myofibroblasts) (listed as Chemical Formula 8): no effects on the inhibition of fibrosis

COc1c(-c2ccc(O)cc2)oc2cc(O)cc(O)c2c1=O [ONGB200]
inhibition of the progress of fibrosis (differentiation into myofibroblasts): no effects or very low effects
inhibition of the progress of fibrosis (differentiation into myofibroblasts) (listed as Chemical Formula 10): no effects on the inhibition of fibrosis

COc1cc2oc(-c3ccc(O)cc3)cc(=O)c2c(O)c1OC [ONGC200, 5-hydroxy-2-(4-hydroxyphenyl)-6,7-dimethoxy-chromone]
inhibition of the progress of fibrosis (differentiation into myofibroblasts): effective at inhibiting the progress of fibrosis

COc1ccc(-c2cc(=O)c3c(O)c(O)c(O)cc3o2)cc1 [ONGD200]
toxicity to ONGHEPA1 cells: toxicity such as necrosis

COc1ccc(-c2oc3cc(O)c(OC)c(O)c3c(=O)c2OC)cc1O [ONGD400]
toxicity to ONGHEPA1 cells: toxicity such as necrosis

COc1c(O)cc2oc(-c3ccc(O)cc3)cc(=O)c2c1O [ONGE200, 5,7-dihydroxy-2-(4-hydroxyphenyl)-6-methoxy-chromone]
inhibition of the progress of fibrosis (differentiation into myofibroblasts): effective at inhibiting the progress of fibrosis
inhibition of the progress of fibrosis (differentiation into myofibroblasts) (listed as Chemical Formula 5): superior fibrosis-inhibiting effects

O=c1cc(-c2ccc(O)c(O)c2O)oc2cc(O)cc(O)c12 [ONGE300]
inhibition of the progress of fibrosis (differentiation into myofibroblasts): no effects or very low effects
inhibition of the progress of fibrosis (differentiation into myofibroblasts) (listed as Chemical Formula 11): no effects on the inhibition of fibrosis

COc1cc2oc(-c3ccc(O)c(O)c3)cc(=O)c2c(O)c1OC [ONGH200, 2-(3,4-dihydroxyphenyl)-5-hydroxy-6,7-dimethoxy-chromone]
inhibition of the progress of fibrosis (differentiation into myofibroblasts): effective at inhibiting the progress of fibrosis
inhibition of the progress of fibrosis (differentiation into myofibroblasts) (listed as Chemical Formula 7): superior fibrosis-inhibiting effects

COc1cc(-c2oc3cc(O)c(OC)c(O)c3c(=O)c2OC)ccc1O [ONGH300]
toxicity to ONGHEPA1 cells: toxicity such as necrosis

COc1c(O)cc2oc(-c3ccc(O)c(O)c3)cc(=O)c2c1O [ONGI300, 2-(3,4-dihydroxyphenyl)-5,7-dihydroxy-6-methoxy-chromone]
inhibition of the progress of fibrosis (differentiation into myofibroblasts): effective at inhibiting the progress of fibrosis
inhibition of the progress of fibrosis (differentiation into myofibroblasts) (listed as Chemical Formula 3): superior fibrosis-inhibiting effects

COc1c(O)cc(O)c2c(=O)cc(-c3ccccc3)oc12 [wogonin, reference compound]
inhibition of the progress of fibrosis (differentiation into myofibroblasts): no effects or very low effects
inhibition of the progress of fibrosis (differentiation into myofibroblasts) (listed as Chemical Formula 9): no effects on the inhibition of fibrosis

— patent US10744114B2, “Use of eupatilin as pharmaceutical composition for prevention and treatment of fibrosis using EMT inhibitory activity” (OSTEONEUROGEN INC., priority 2016, dated 2020)
